Literature values in patent publication US6680310B2, “Methods for preventing antipsychotic-induced weight gain” (Corcept Therapeutics, Inc., priority 2001, dated 2004).

Conditions: in one study (Kawai, supra)

fraction of the daily dose excreted in the urine: less than 0.5%
SMILES: CC#C[C@]1(O)CC[C@H]2[C@@H]3CCC4=CC(=O)CCC4=C3[C@@H](c3ccc(N(C)C)cc3)C[C@@]21C [Mifepristone, 17-beta-hydroxy-11-beta-(4-dimethyl-aminophenyl)-17-alpha(1-propynyl)-estra-4,9-dien-3-one]
